Tests used:
Assay type in all cases: in vivo
Conditions in all cases: evaluated after 13 days
Lolium perenne (LOLPE) [1] = experiment: Pre-emergence herbicidal activity, Lolium perenne; parameters: key: 5=total damage to plant; 0=no damage to plant
How it was run: (§1)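 Pots of seeds were sprayed one day after sowing (pre-emergence) with compound in acetone/water (50:50) plus 0.5% Tween 20, then grown in a glasshouse at 24/16 °C day/night, 14 h light, 65% humidity. Damage scored 0–5 (5 = total damage) after 13 days.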

[2] = system: Triticum aestivium (TRZAW); experiment: Pre-emergence herbicidal activity, Triticum aestivium; parameters: key: 5=total damage to plant; 0=no damage to plant
How it was run: as §1

Setaria faberi (SETFA) [3] = experiment: Pre-emergence herbicidal activity, Setaria faberi; parameters: key: 5=total damage to plant; 0=no damage to plant
How it was run: as §1

[4] = system: Alopecurus myosuroides (ALOMY); experiment: Pre-emergence herbicidal activity, Alopecurus myosuroides; parameters: key: 5=total damage to plant; 0=no damage to plant
How it was run: as §1

Lolium perenne (LOLPE) [5] = experiment: Post-emergence herbicidal activity, Lolium perenne; parameters: key: 5=total damage to plant; 0=no damage to plant
How it was run: (§2)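 Scores (0 no damage to 5 total damage) read 13 d after spraying. Plants sprayed post-emergence 8 d after sowing; spray solution acetone/water 50:50 with 0.5% Tween 20. Growth at 24/16 °C day/night, 14 h light, 65% RH, twice-daily watering.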

[6] = system: Alopecurus myosuroides (ALOMY); experiment: Post-emergence herbicidal activity, Alopecurus myosuroides; parameters: key: 5=total damage to plant; 0=no damage to plant
How it was run: as §2

Avena fatua (AVEFA) [7] = experiment: Pre-emergence herbicidal activity, Avena fatua; parameters: key: 5=total damage to plant; 0=no damage to plant
How it was run: as §1

[8] = system: Triticum aestivium (TRZAW); experiment: Post-emergence herbicidal activity, Triticum aestivium; parameters: key: 5=total damage to plant; 0=no damage to plant
How it was run: as §2

Avena fatua (AVEFA) [9] = experiment: Post-emergence herbicidal activity, Avena fatua
How it was run: as §2

[10] = system: Echinochloa crus-galli (ECHCG); experiment: Pre-emergence herbicidal activity, Echinochloa crus-galli
How it was run: as §1

[11] = system: Echinochloa crus-galli (ECHCG); experiment: Post-emergence herbicidal activity, Echinochloa crus-galli
How it was run: as §2

Setaria faberi (SETFA) [12] = experiment: Post-emergence herbicidal activity, Setaria faberi; parameters: key: 5=total damage to plant; 0=no damage to plant
How it was run: as §2

Row | Compound | Control of LOLPE after pre-emergence application (score 0-5) (Lolium perenne (LOLPE) [1]; 1000 g/ha) | Control of TRAZW after pre-emergence application (score 0-5) ([2]; 1000 g/ha) | Control of SETFA after pre-emergence application (score 0-5) (Setaria faberi (SETFA) [3]; 1000 g/ha) | Control of ALOMY after pre-emergence application (score 0-5) ([4]; 1000 g/ha) | Control of LOLPE after post-emergence application (score 0-5) (Lolium perenne (LOLPE) [5]; 1000 g/ha) | Control of ALOMY after post-emergence application (score 0-5) ([6]; 1000 g/ha) | Control of AVEFA after pre-emergence application (score 0-5) (Avena fatua (AVEFA) [7]; 1000 g/ha) | Control of TRAZW after post-emergence application (score 0-5) ([8]; 1000 g/ha) | Control of AVEFA after post-emergence application (score 0-5) (Avena fatua (AVEFA) [9]; 1000 g/ha) | Control of ECHCG after pre-emergence application (score 0-5) ([10]; 1000 g/ha) | Control of ECHCG after post-emergence application (score 0-5) ([11]; 1000 g/ha) | Control of SETFA after post-emergence application (score 0-5) (Setaria faberi (SETFA) [12]; 1000 g/ha) | also measured
1 | CC(C)COC(=O)Nc1ccc(-c2cncc(F)c2)nc1C(F)(F)F [Compound B43] | 1 | 1 | 4 | 1 | 3 | 1 | 1 | 2 | 4 | 3 | 4 | 5 | 
2 | C=CCN(C(=O)OC(C)(C)C)c1ccc(-c2cncnc2)nc1C(F)(F)F [Compound B35] | 1 | 0 | 4 | 0 | 2 | 0 | 0 | 1 | 2 | 2 | 3 | 5 | 
3 | CC(C)NC(=O)Nc1ccc(-c2cncnc2)nc1C(F)(F)F [Compound B44] | 1 | 0 | 3 | 0 | 2 | 1 | 2 | 1 | 3 | 3 | 4 | 4 | 
4 | O=C(Nc1ccc(-c2cncnc2)nc1C(F)(F)F)N1CCOCC1 [Compound B55] | 0 | 0 | 1 | 0 | 1 | 0 | 1 | 0 | 2 | 1 | 3 | 4 | 
5 | C=CCN(C(=O)N(C)C)c1ccc(-c2cncc(F)c2)nc1C(F)(F)F [Compound B123] | 1 | 0 | 5 | 0 | 1 | 2 | 1 | 1 | 2 | 3 | 3 | 5 | 
6 | CSCCCNC(=O)Nc1ccc(-c2cncc(F)c2)nc1C(F)(F)F [Compound B98] |  |  |  |  |  |  |  |  |  |  |  |  | Control of LOLPE after pre-emergence application (score 0-5) (Lolium perenne (LOLPE) [1]; 250 g/ha): 1; Control of TRAZW after pre-emergence application (score 0-5) ([2]; 250 g/ha): 0; Control of SETFA after pre-emergence application (score 0-5) (Setaria faberi (SETFA) [3]; 250 g/ha): 4; Control of ALOMY after pre-emergence application (score 0-5) ([4]; 250 g/ha): 0; Control of LOLPE after post-emergence application (score 0-5) (Lolium perenne (LOLPE) [5]; 250 g/ha): 0; Control of ALOMY after post-emergence application (score 0-5) ([6]; 250 g/ha): 0; Control of AVEFA after pre-emergence application (score 0-5) (Avena fatua (AVEFA) [7]; 250 g/ha): 1; Control of TRAZW after post-emergence application (score 0-5) ([8]; 250 g/ha): 0; Control of AVEFA after post-emergence application (score 0-5) (Avena fatua (AVEFA) [9]; 250 g/ha): 3; Control of ECHCG after pre-emergence application (score 0-5) ([10]; 250 g/ha): 1; Control of ECHCG after post-emergence application (score 0-5) ([11]; 250 g/ha): 2; Control of SETFA after post-emergence application (score 0-5) (Setaria faberi (SETFA) [12]; 250 g/ha): 5

Source: patent US20210127673A1, “HERBICIDES” (SYNGENTA PARTICIPATIONS AG, priority 2016, published 2021)
